Laboratory results reported in patent publication US8685970B2, “Quinolines and related analogs as sirtuin modulators” (GlaxoSmithKline, LLC, priority 2008, dated 2014).

Target: T1, SIRT1 (Homo sapiens, UniProt Q96EB6)
T1 sequence (Q96EB6 1-747): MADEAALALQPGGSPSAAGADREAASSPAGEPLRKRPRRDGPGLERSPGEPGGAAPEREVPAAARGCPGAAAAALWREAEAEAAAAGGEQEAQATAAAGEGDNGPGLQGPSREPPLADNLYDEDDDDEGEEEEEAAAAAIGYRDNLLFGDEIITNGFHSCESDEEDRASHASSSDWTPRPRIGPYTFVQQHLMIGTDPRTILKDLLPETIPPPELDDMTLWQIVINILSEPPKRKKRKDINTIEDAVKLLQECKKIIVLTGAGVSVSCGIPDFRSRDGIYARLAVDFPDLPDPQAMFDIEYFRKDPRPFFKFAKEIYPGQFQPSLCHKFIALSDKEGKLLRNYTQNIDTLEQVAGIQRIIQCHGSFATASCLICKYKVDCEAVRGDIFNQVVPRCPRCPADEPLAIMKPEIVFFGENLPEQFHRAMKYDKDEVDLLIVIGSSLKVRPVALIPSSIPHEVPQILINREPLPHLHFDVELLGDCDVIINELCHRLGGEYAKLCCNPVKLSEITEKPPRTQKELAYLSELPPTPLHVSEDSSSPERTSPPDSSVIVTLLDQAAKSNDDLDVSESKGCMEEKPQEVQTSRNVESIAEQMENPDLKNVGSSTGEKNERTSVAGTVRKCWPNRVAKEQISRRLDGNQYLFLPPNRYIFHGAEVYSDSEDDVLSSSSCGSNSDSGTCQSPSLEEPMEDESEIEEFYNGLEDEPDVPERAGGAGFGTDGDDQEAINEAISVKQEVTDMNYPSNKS
Assay: Mass spectrometry based SIRT1 deacetylation assay (activation)
Assay type: biochemical
Settings: 10 nM SIRT1, 0.5 μM peptide substrate, 120 μM βNAD+, 25 min at 25° C.
From the text: A mass spectrometry based assay was used to identify modulators of SIRT1 activity. The mass spectrometry based assay utilizes a peptide having 20 amino acid residues as follows: Ac-EE-K (biotin)-GQSTSSHSK (Ac)N1eSTEG-K(5TMR)-EE-NH2 (SEQ ID NO: 1) wherein K(Ac) is an acetylated lysine residue and Nle is a norleucine. The peptide is labeled with the fluorophore 5TMR (excitation 540 nm/emission 580 nm) at the C-terminus. The sequence of the peptide substrate is based on p53 with several modifications. In addition, the methionine residue naturally present in the sequence was replaced with the norleucine because the methionine may be susceptible to oxidation during synthesis and purification.
The mass spectrometry assay is conducted as follows: 0.5 μM peptide substrate and 120 μM βNAD^+ is incubated with 10 nM SIRT1 for 25 minutes at 25° C. in a reaction buffer (50 mM Tris-acetate pH 8, 137 mM NaCl, 2.7 mM KCl, 1 mM MgCl2, 5 mM DTT, 0.05% BSA). Test compounds may be added to the reaction as described above. The SirT1 gene is cloned into a T7-promoter containing vector and transformed into BL21(DE3). After the 25 minute incubation with SIRT1, 10 μL of 10% formic acid is added to stop the reaction. Reactions are sealed and frozen for later mass spec analysis. Determination of the mass of the substrate peptide allows for precise determination of the degree of acetylation (i.e. starting material) as compared to deacetylated peptide (product).
A control for inhibition of sirtuin activity is conducted by adding 1 μL of 500 mM nicotinamide as a negative control at the start of the reaction (e.g., permits determination of maximum sirtuin inhibition). A control for activation of sirtuin activity is conducted using 10 nM of sirtuin protein, with 1 μL of DMSO in place of compound, to determine the amount of deacetylation of the substrate at a given timepoint within the linear range of the assay. This timepoint is the same as that used for test compounds and, within the linear range, the endpoint represents a change in velocity.
For the above assay, SIRT1 protein was expressed and purified as follows. The SirT1 gene was cloned into a T7-promoter containing vector and transformed into BL21(DE3). The protein was expressed by induction with 1 mM IPTG as an N-terminal His-tag fusion protein at 18° C. overnight and harvested at 30,000×g. Cells were lysed with lysozyme in lysis buffer (50 mM Tris-HCl, 2 mM Tris[2-carboxyethyl]phosphine (TCEP), 10 μM ZnCl2, 200 mM NaCl) and further treated with sonication for 10 min for complete lysis. The protein was purified over a Ni-NTA column (Amersham) and fractions containing pure protein were pooled, concentrated and run over a sizing column (Sephadex S200 26/60 global). The peak containing soluble protein was collected and run on an Ion-exchange column (MonoQ). Gradient elution (200 mM-500 mM NaCl) yielded pure protein. This protein was concentrated and dialyzed against dialysis buffer (20 mM Tris-HCl, 2 mM TCEP) overnight. The protein was aliquoted and frozen at −80° C. until further use.
Sirtuin modulating compounds that activated SIRT1 were identified using the assay described above and are shown below in Table 1. The EC1.5 values represent the concentration of test compounds that result in 150% activation of SIRT1. The EC1.5 values for the activating compounds are represented by A (EC1.5<1.0 uM), B (EC1.5 1-25 uM), C (EC1.5>25 uM). The percent maximum fold activation is represented by A (Fold activation >200%) or B (Fold Activation <200%). “NT” indicates the compound was not tested in a particular assay.

| Compound | % Fold Act. (percent maximum fold activation) | EC1.5 (concentration of test compound that results in 150% activation of SIRT1) |
| --- | --- | --- |
| O=C(O)c1csc(NC(=O)c2cccc3ccc(-c4cccc(C(F)(F)F)c4)nc23)n1 [Compound 101] | A (Fold activation >200%) | B (EC1.5 1-25 uM) |
| CS(=O)(=O)c1cccc(-c2ccc3cccc(NCc4cccnc4)c3n2)c1 [Compound 163] | – | C (EC1.5>25 uM) |
| O=C(Nc1cccc2ccc(-c3cccc(C(F)(F)F)c3)nc12)c1csc(-c2ccccc2)n1 [Compound 206] | – | C (EC1.5>25 uM) |
| O=C(NC1CCCC1)c1cccc2ccc(-c3cccc(O[C@@H]4CCNC4)c3)nc12 [Compound 102] | A (Fold activation >200%) | B (EC1.5 1-25 uM) |
| O=C(Nc1ccccn1)c1cccc2ccc(-c3cccnc3)nc12 [Compound 182] | B (Fold Activation <200%) | A (EC1.5<1.0 uM) |
| O=C(Nc1ccccc1)c1cccc2ccc(-c3ccccc3)nc12 [Compound 9] | B (Fold Activation <200%) | C (EC1.5>25 uM) |
| O=C(Nc1cccc2ccc(-c3cccc(C(F)(F)F)c3)nc12)c1cccc(OCCN2CCOCC2)c1 [Compound 318] | – | C (EC1.5>25 uM) |
| Cc1csc(NC(=O)c2cccc3cnc(-c4cccc(N5CCOCC5)c4)nc23)n1 [Compound 313] | A (Fold activation >200%) | A (EC1.5<1.0 uM) |
| O=C(Nc1cccnn1)c1cccc2ccc(-c3cccc(C(F)(F)F)c3)nc12 [Compound 100] | A (Fold activation >200%) | A (EC1.5<1.0 uM) |
| O=C(Nc1cccc2ccc(-c3ccccc3)nc12)c1cnccn1 [Compound 3] | A (Fold activation >200%) | A (EC1.5<1.0 uM) |
| O=C(Nc1cccc2ccc(-c3cccc(CN4CCCC4)c3)nc12)c1cscn1 [Compound 119] | A (Fold activation >200%) | A (EC1.5<1.0 uM) |
| O=C(Nc1nccs1)c1cccc2ncc(-c3cccc(C(F)(F)F)c3)nc12 [Compound 123] | – | C (EC1.5>25 uM) |
| O=C(Nc1cccc2ccc(-c3cccc(C(F)(F)F)c3)nc12)c1cocn1 [Compound 195] | B (Fold Activation <200%) | A (EC1.5<1.0 uM) |
| O=C(Nc1ccccn1)c1cccc2cc(C(F)(F)F)c(-c3ccccc3)nc12 [Compound 184] | – | C (EC1.5>25 uM) |
| O=C(Nc1ccc(CN2CCCC2)nc1)c1cccc2ccc(-c3cccc(C(F)(F)F)c3)nc12 [Compound 292] | A (Fold activation >200%) | A (EC1.5<1.0 uM) |
| O=C(Nc1cccc2ccc(-c3cccnc3)nc12)c1cnccn1 [Compound 142] | B (Fold Activation <200%) | A (EC1.5<1.0 uM) |
| CN(C)Cc1cccc(-c2ccc3cccc(NC(=O)c4cscn4)c3n2)c1 [Compound 122] | A (Fold activation >200%) | A (EC1.5<1.0 uM) |
| O=C(Nc1cccc2ccc(-c3ccc(F)c(C(F)(F)F)c3)nc12)c1ccccn1 [Compound 154] | B (Fold Activation <200%) | A (EC1.5<1.0 uM) |
| O=C(Nc1ccc(Cl)cn1)c1cccc2ccc(-c3cccc(N4CCOCC4)c3)nc12 [Compound 278] | A (Fold activation >200%) | A (EC1.5<1.0 uM) |
| O=C(Nc1cccnc1)c1cccc2ccc(-c3cccc(C(F)F)c3)nc12 [Compound 260] | A (Fold activation >200%) | A (EC1.5<1.0 uM) |
| O=C(Nc1cccc2ccc(-c3cccc(C(F)(F)F)c3)nc12)c1cnccn1 [Compound 4] | B (Fold Activation <200%) | A (EC1.5<1.0 uM) |
| O=C(Nc1cccc(OC[C@H](O)CO)c1)c1cccc2ccc(-c3cccc(C(F)(F)F)c3)nc12 [Compound 217] | A (Fold activation >200%) | A (EC1.5<1.0 uM) |
| O=C(Nc1ccncn1)c1cccc2ccc(-c3cccnc3)nc12 [Compound 208] | – | C (EC1.5>25 uM) |
| O=C(Nc1cccc2ccc(-c3cccnc3)nc12)c1cscn1 [Compound 76] | A (Fold activation >200%) | A (EC1.5<1.0 uM) |
| O=C(Nc1nccs1)c1cccc2ccc(-c3cccc(C(F)(F)F)c3)nc12 [Compound 13] | A (Fold activation >200%) | A (EC1.5<1.0 uM) |
| O=C(Nc1ccccc1)c1cccc2ccc(-c3cccc(C(F)(F)F)c3)nc12 [Compound 10] | A (Fold activation >200%) | B (EC1.5 1-25 uM) |
| Cc1cccc(NC(=O)c2cccc3ccc(-c4cccnc4)nc23)n1 [Compound 249] | A (Fold activation >200%) | B (EC1.5 1-25 uM) |
| O=C(Nc1ccccn1)c1cccc2ccc(-c3ccccc3C(F)(F)F)nc12 [Compound 85] | B (Fold Activation <200%) | B (EC1.5 1-25 uM) |
